Test results published in patent publication US20220112199A1, “EGFR INHIBITOR FOR MEDICAL USE” (Hoffmann-La Roche Inc., priority 2019, published 2022).

Target: T1, EGFR TMLRCS (T790M/L858R/C797S) in BaF3-TMLRCS cell line (Homo sapiens, UniProt P00533, C797S/L858R/T790M)
T1 construct: host or cells: BaF3 (BaF3-TMLRCS cell line)
Assay: HTRF Phospho EGFR TMLRCS Assay (Cellular)
Format: cell-based
Settings: BaF3-TMLRCS cells, 4 hours incubation
Experimental: HTRF Phospho EGFR TMLRCS Assay (Cellular)
BaF3-TMLRCS cell line were obtained from Crownbio (San Diego, Calif., USA). Cells were maintained at 37° C., 5% CO2 in RPMI ATCC (Gibco 31870)+2 mM Glutamine+0.5 μg/ml Puromycin supplemented with 10% fetal bovine serum (FBS) (Gibco).
Cells are transferred as above to Greiner Bio-One, Nr. 784-08 micro-titerplate at 20000 cells/well in 12.5 μl of growth medium/well after the plates had been pre-filled with 12.5 nl of DMSO solutions of the to be tested compounds (in dose response) or DMSO only. After spinning the plates at 300 ×g for 30 seconds the cells were incubated for 4 hours at 37 C, 5% CO2, 95% humidity. The cells were lysed by adding to the compound mix 4 μl/well of the supplemented lysis buffer (Cis-bio, Phospho-EGFR HTRF kit, 64EG1PEH), followed by incubation for 30 min at room temperature with shaking (400 rpm). The plates were then frozen and stored overnight at −80 C. […] The lidded plates were then incubated for 4 h at room temperature before reading the fluorescence emission at 616 and 665 nm using an Envision reader (Perkin Elmer). Data was analyzed in similar fashion as above using the normalized ratio of the 665 to 616 signals multiplied by 10000.

T1 sequence (P00533 25-1210 T790M/C797S/L858R): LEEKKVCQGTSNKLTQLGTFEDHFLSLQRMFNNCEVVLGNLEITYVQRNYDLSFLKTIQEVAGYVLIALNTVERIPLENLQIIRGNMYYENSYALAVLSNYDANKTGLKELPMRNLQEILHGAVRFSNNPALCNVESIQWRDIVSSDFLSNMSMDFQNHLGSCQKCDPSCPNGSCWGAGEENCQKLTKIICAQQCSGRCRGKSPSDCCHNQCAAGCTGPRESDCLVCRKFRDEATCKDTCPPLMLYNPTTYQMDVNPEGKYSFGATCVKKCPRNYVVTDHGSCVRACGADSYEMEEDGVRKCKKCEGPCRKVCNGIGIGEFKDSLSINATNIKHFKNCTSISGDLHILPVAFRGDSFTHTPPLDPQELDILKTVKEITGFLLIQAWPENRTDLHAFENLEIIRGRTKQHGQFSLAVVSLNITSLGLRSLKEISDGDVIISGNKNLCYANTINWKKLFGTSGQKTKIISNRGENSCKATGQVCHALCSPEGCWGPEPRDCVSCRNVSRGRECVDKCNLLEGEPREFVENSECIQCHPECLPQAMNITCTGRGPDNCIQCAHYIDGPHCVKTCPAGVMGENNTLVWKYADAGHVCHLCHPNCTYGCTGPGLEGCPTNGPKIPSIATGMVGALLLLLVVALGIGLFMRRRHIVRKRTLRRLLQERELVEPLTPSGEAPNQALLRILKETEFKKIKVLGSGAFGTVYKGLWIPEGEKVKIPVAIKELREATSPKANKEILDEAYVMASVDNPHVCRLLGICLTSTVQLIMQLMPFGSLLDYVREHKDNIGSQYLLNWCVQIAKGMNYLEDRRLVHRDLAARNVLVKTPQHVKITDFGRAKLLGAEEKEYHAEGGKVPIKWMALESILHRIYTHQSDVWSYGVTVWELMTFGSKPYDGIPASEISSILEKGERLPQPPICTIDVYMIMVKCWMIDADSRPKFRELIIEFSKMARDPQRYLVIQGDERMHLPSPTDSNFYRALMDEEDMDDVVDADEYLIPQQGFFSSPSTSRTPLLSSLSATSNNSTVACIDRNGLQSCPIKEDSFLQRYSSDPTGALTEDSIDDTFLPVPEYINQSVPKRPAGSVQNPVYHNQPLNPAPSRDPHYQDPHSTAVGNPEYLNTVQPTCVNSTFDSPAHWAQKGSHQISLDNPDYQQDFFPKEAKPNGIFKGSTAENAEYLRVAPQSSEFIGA

## O=C(Nc1nccs1)C(c1ncn2c1CCC2)N1Cc2c(cc(C#Cc3ccc(CN4CCC(O)CC4)cc3)cc2C(F)(F)F)C1=O (racemic) [Example 1, (2RS)-2-(6,7-Dihydro-5H-pyrrolo[1,2-c]imidazol-1-yl)-2-[6-[2-[4-[(4-hydroxy-1-piperidyl)methyl]phenyl]ethynyl]-1-oxo-4-(trifluoromethyl)isoindolin-2-yl]-N-thiazol-2-yl-acetamide]
  IC50: 14 nM
